The values that follow are results of earlier work, collected in patent US20100240621A1, “TOPICAL PHARMACEUTICAL COMPOSITION FOR THE COMBINATION OF FUSIDIC ACID AND A CORTICOSTEROID” (priority 2007, published 2010).

The subject of data set [1] is Peptococcus species.
Data set [2] concerns Propionibacterium Danes.
In data set [3] the test system is staphylococcus epidermidis. To be noted: at 4 mg/L.
For data set [4], the system named is Clostridium species.
Data set [5] relates to most Bacteroides species.
Data set [6] has as its system oxacillin-sensitive staphylococcus aureus. To be noted: at a concentration of 0.12 mg/L.
Data set [7] concerns oxacillin-resistant staphylococcus aureus. To be noted: at a concentration of 2 mg/L.
The conditions of data set [8]: solution, cream, and ointment formulations.
The conditions of data set [9]: in vivo.

As for `CC(=O)O[C@H]1C[C@@]2(C)[C@@H](C[C@@H](O)[C@H]3[C@@]4(C)CC[C@@H](O)[C@@H](C)[C@@H]4CC[C@@]32C)/C1=C(\CCC=C(C)C)C(=O)O` [Fusidic acid], the “concentration at which 90% of organisms inhibited” value in data set [1], in data set [2], in [4] and in data set [5] was at most 2 mg/L each time. In data set [3], the staphylococcus epidermidis inhibited is recorded as 99%. Also, in [6], the “oxacillin-sensitive staphylococcus aureus inhibited” value is 100%. The “oxacillin-resistant staphylococcus aureus inhibited” value in data set [7] was “At least 99%”.

Turning to `CCC(=O)O[C@]1(C(=O)CCl)[C@@H](C)C[C@H]2[C@@H]3C[C@H](F)C4=CC(=O)C=C[C@]4(C)[C@@]3(F)[C@@H](O)C[C@@]21C` [Halobetasol propionate], in [8], the “potency class by vasoconstrictor assay” value is given as “super high-potency”. Further, the “applied dose entering the circulation” value in data set [9] is given as “less than 6%”.
